Results as given in US9758505B2, “3-(indol-3-yl)-pyridine derivatives, pharmaceutical compositions and methods for use” (ITEOS THERAPEUTICS, priority 2014, dated 2017).
pIC50: −log10 of the molar value. Where a name gives a salt, the structure may show the parent alone.

Target: human TDO2 (Homo sapiens (Human), UniProt P48775)
Experiment: Cellular assay for TDO2 activity, A172 cells naturally expressing hTDO2
Format: cell-based
Details: human glioblastoma A172 cells, overnight incubation, kynurenine in supernatant
Protocol: A172 is a cell line derived from human brain glioblastoma cells.
To determine TDO, the cells were incubated overnight at 37° C. at 5% CO2 in IMDM (Invitrogen) supplemented with 2% FBS and 2% penicillin/streptomycin in the presence of the compounds of the present invention, at different concentrations.
The plates were then centrifuged 5 min at 1000 rpm, and 100 μL of the supernatant were collected in a conical plate, 30 uL of TCA 30% were added and a further centrifugated at 3000×g for 10 minutes. 100 μL of the supernatant were collected in a flat bottomed plate and 100 μL of 2% (w/v) 4-(dimethylamino)-benzaldehyde in acetic acid and incubated for 5 min at room temperature. Kynurenine concentrations were determined by measuring the absorbance at 480 nm. A standard curve was made with pure kynurenine. The TDO activity was measured as described above using ten serial concentrations of the compounds of the present invention. Data were fitted using the Prism™ software (GraphPad Software, Inc.) using standard software configurations.

human TDO2, sequence (P48775 whole entry): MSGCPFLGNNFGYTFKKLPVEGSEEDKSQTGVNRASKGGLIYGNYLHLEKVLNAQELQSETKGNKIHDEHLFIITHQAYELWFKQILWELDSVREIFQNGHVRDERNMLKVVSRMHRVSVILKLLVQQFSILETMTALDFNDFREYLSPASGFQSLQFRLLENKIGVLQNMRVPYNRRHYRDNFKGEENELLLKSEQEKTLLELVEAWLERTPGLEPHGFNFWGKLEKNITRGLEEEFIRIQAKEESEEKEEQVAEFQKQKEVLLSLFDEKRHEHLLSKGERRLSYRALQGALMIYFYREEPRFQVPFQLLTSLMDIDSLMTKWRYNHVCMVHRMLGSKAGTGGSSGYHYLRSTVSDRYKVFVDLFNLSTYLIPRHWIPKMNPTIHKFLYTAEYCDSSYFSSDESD

Row | pIC50 | Structure (SMILES)
1 | 5.92 | CS(=O)(=O)NC1CCN(c2ccc(-c3c[nH]c4ccccc34)cn2)CC1 [Example 79, N-(1-(5-(1H-indol-3-yl)pyridin-2-yl)piperidin-4-yl)methanesulfonamide]
2 | 6.44 | NC(=O)Nc1ccc(-c2c[nH]c3cc(F)ccc23)cn1 [Example 63, 1-(5-(6-fluoro-1H-indol-3-yl)pyridin-2-yl)urea]
3 | 6.09 | O=C(Nc1ccc(-c2c[nH]c3cc(F)ccc23)cn1)[C@@H]1CCCN1 [Example 58, (S)—N-(5-(6-fluoro-1H-indol-3-yl)pyridin-2-yl)pyrrolidine-2-carboxamide]
4 | 6.51 | NS(=O)(=O)c1ccc(-c2c[nH]c3cc(F)ccc23)cn1 [Example 80, 5-(6-fluoro-1H-indol-3-yl)pyridine-2-sulfonamide hydrochloride]
5 | 6.23 | O=C1COCCN1c1ccc(-c2c[nH]c3cc(F)ccc23)cn1 [Example 82, 4-(5-(6-fluoro-1H-indol-3-yl)pyridin-2-yl)morpholin-3-one]
6 | 6.62 | O=S(=O)(c1ccc(-c2c[nH]c3cc(F)c(F)cc23)cn1)N1CCNCC1 [Example 94, 5,6-difluoro-3-(6-(piperazin-1-ylsulfonyl)pyridin-3-yl)-1H-indole]
7 | 5.89 | O=S(=O)(CCO)NC1CCN(c2ccc(-c3c[nH]c4cc(F)ccc34)cn2)CC1 [Example 62, N-(1-(5-(6-fluoro-1H-indol-3-yl)pyridin-2-yl)piperidin-4-yl)-2-hydroxyethanesulfonamide]
8 | 6.30 | Cc1nc2cc(-c3c[nH]c4cc(F)ccc34)cnc2o1 [Example 75, 6-(6-fluoro-1H-indol-3-yl)-2-methyloxazolo[5,4-b]pyridine]
9 | 6.46 | CN(CCNS(=O)(=O)c1ccc(-c2c[nH]c3cc(F)ccc23)cn1)S(C)(=O)=O [Example 89, 5-(6-fluoro-1H-indol-3-yl)-N-(2-(N-methylmethylsulfonamido)ethyl)pyridine-2-sulfonamide]
10 | 6.70 | O=S(=O)(c1ccc(-c2c[nH]c3ccccc23)cn1)N1CCNCC1 [Example 93, 3-(6-(piperazin-1-ylsulfonyl)pyridin-3-yl)-1H-indole]
11 | 6.48 | CC(=O)NCCNS(=O)(=O)c1ccc(-c2c[nH]c3cc(F)ccc23)cn1 [Example 92, N-(2-(5-(6-fluoro-1H-indol-3-yl)pyridine-2-sulfonamido)ethyl)acetamide]
12 | 5.62 | N#Cc1ccc2[nH]cc(-c3ccc(S(=O)(=O)N4CCNCC4)nc3)c2c1 [Example 97, 3-(6-(piperazin-1-ylsulfonyl)pyridin-3-yl)-1H-indole-5-carbonitrile]
13 | 5.55 | CS(=O)(=O)NC1CCN(c2ccc(-c3c[nH]c4ccc(Cl)cc34)cn2)CC1 [Example 77, N-(1-(5-(5-chloro-1H-indol-3-yl)pyridin-2-yl)piperidin-4-yl)methanesulfonamide]
14 | 6.44 | CN(CCC(N)=O)S(=O)(=O)c1ccc(-c2c[nH]c3cc(F)ccc23)cn1 [Example 101, 3-(5-(6-fluoro-1H-indol-3-yl)-N-methylpyridine-2-sulfonamido)propanamide]
15 | 6.09 | CN(C)C(=O)Nc1ccc(-c2c[nH]c3cc(F)ccc23)cn1 [Example 65, 3-(5-(6-fluoro-1H-indol-3-yl)pyridin-2-yl)-1,1-dimethylurea]
16 | 6.64 | O=S(=O)(c1ccc(-c2c[nH]c3cc(F)ccc23)cn1)N1CCNCC1 [Example 87, 6-fluoro-3-(6-(piperazin-1-ylsulfonyl)pyridin-3-yl)-1H-indole]
17 | 5.85 | O=c1[nH]c2ncc(-c3c[nH]c4cc(F)ccc34)cc2o1 [Example 71, 6-(6-fluoro-1H-indol-3-yl)oxazolo[4,5-b]pyridin-2(3H)-one]
18 | 5.70 | CS(=O)(=O)NC1CCN(c2ccc(-c3c[nH]c4ccc(F)cc34)cn2)CC1 [Example 81, N-(1-(5-(5-fluoro-1H-indol-3-yl)pyridin-2-yl)piperidin-4-yl)methanesulfonamide]
19 | 6.57 | CN(CCNS(C)(=O)=O)S(=O)(=O)c1ccc(-c2c[nH]c3cc(F)ccc23)cn1 [Example 91, 5-(6-fluoro-1H-indol-3-yl)-N-methyl-N-(2-(methylsulfonamido)ethyl)pyridine-2-sulfonamide]
20 | 6.46 | CS(=O)(=O)NCCNS(=O)(=O)c1ccc(-c2c[nH]c3cc(F)ccc23)cn1 [Example 88, 5-(6-fluoro-1H-indol-3-yl)-N-(2-(methylsulfonamido)ethyl)pyridine-2-sulfonamide]
21 | 5.85 | O=S(=O)(CCN1CCOCC1)NC1CCN(c2ccc(-c3c[nH]c4cc(F)ccc34)cn2)CC1 [Example 59, N-(1-(5-(6-fluoro-1H-indol-3-yl)pyridin-2-yl)piperidin-4-yl)-2-morpholinoethanesulfonamide]
22 | 6.32 | Cn1cc(-c2c[nH]c3cc(F)ccc23)ccc1=O [Example 68, 5-(6-fluoro-1H-indol-3-yl)-1-methylpyridin-2(1H)-one]

Row | pIC50 | Structure (SMILES)
23 | 6.06 | CS(=O)(=O)NCCC(=O)Nc1ccc(-c2c[nH]c3cc(F)ccc23)cn1 [Example 64, N-(5-(6-fluoro-1H-indol-3-yl)pyridin-2-yl)-3-(methylsulfonamido)propanamide]
24 | 6.28 | Cc1ccc2[nH]cc(-c3ccc(S(=O)(=O)N4CCNCC4)nc3)c2c1 [Example 96, 5-methyl-3-(6-(piperazin-1-ylsulfonyl)pyridin-3-yl)-1H-indole]
25 | 5.82 | O=C1CNCCN1c1ccc(-c2c[nH]c3cc(F)ccc23)cn1 [Example 83, 1-(5-(6-fluoro-1H-indol-3-yl)pyridin-2-yl)piperazin-2-one]
26 | 5.85 | CS(=O)(=O)N1CCN(S(=O)(=O)c2ccc(-c3c[nH]c4cc(F)ccc34)cn2)CC1 [Example 90, 6-fluoro-3-(6-((4-(methylsulfonyl)piperazin-1-yl)sulfonyl)pyridin-3-yl)-1H-indole]
27 | 6.43 | O=S(=O)(c1ccc(-c2c[nH]c3ccc(F)cc23)cn1)N1CCNCC1 [Example 95, 5-fluoro-3-(6-(piperazin-1-ylsulfonyl)pyridin-3-yl)-1H-indole]
28 | 5.33 | CS(=O)(=O)NC1CCN(c2ccc(-c3c[nH]c4cc(Cl)ccc34)cn2)CC1 [Example 72, N-(1-(5-(6-chloro-1H-indol-3-yl)pyridin-2-yl)piperidin-4-yl)methanesulfonamide]
29 | 5.85 | Cc1ccc2c(-c3ccc(S(=O)(=O)N4CCNCC4)nc3)c[nH]c2c1 [Example 98, 6-methyl-3-(6-(piperazin-1-ylsulfonyl)pyridin-3-yl)-1H-indole]
30 | 6.21 | Fc1ccc2c(-c3ccc(NC4CCOCC4)nc3)c[nH]c2c1 [Example 100, 5-(6-fluoro-1H-indol-3-yl)-N-(tetrahydro-2H-pyran-4-yl)pyridin-2-amine]
31 | 6.13 | CC(C)[C@H](N)C(=O)Nc1ccc(-c2c[nH]c3cc(F)ccc23)cn1 [Example 38, (S)-2-amino-N-(5-(6-fluoro-1H-indol-3-yl)pyridin-2-yl)-3-methylbutanamide]
32 | 6.28 | CC(=O)N1CCC(C(=O)Nc2ccc(-c3c[nH]c4cc(F)ccc34)cn2)CC1 [Example 42, 1-acetyl-N-(5-(6-fluoro-1H-indol-3-yl)pyridin-2-yl)piperidine-4-carboxamide]
33 | 5.85 | COCCS(=O)(=O)NC1CCN(c2ccc(-c3c[nH]c4cc(F)ccc34)cn2)CC1 [Example 57, N-(1-(5-(6-fluoro-1H-indol-3-yl)pyridin-2-yl)piperidin-4-yl)-2-methoxyethanesulfonamide]
34 | 6.21 | CCOC(=O)Cn1c(=O)[nH]c2cc(-c3c[nH]c4cc(F)ccc34)cnc21 [Example 86, ethyl 2-(6-(6-fluoro-1H-indol-3-yl)-2-oxo-1H-imidazo[4,5-b]pyridin-3(2H)-yl)acetate]
35 | 5.64 | O=C(O)Cn1c(=O)[nH]c2cc(-c3c[nH]c4cc(F)ccc34)cnc21 [Example 85, 2-(6-(6-fluoro-1H-indol-3-yl)-2-oxo-1H-imidazo[4,5-b]pyridin-3(2H)-yl)acetic acid]
36 | 6.14 | CS(=O)(=O)NCCCC(=O)Nc1ccc(-c2c[nH]c3cc(F)ccc23)cn1 [Example 70, N-(5-(6-fluoro-1H-indol-3-yl)pyridin-2-yl)-4-(methylsulfonamido)butanamide]
37 | 6.36 | CNC(=O)Nc1ccc(-c2c[nH]c3cc(F)ccc23)cn1 [Example 66, 1-(5-(6-fluoro-1H-indol-3-yl)pyridin-2-yl)-3-methylurea]
38 | 6.40 | Cc1nc2ncc(-c3c[nH]c4cc(F)ccc34)cc2o1 [Example 74, 6-(6-fluoro-1H-indol-3-yl)-2-methyloxazolo[4,5-b]pyridine]
39 | 6.22 | O=c1[nH]c2cc(-c3c[nH]c4cc(F)ccc34)cnc2[nH]1 [Example 73, 6-(6-fluoro-1H-indol-3-yl)-1H-imidazo[4,5-b]pyridin-2(3H)-one]
40 | 5.39 | O=C1Cc2ncc(-c3c[nH]c4cc(F)ccc34)cc2N1 [Example 76, 6-(6-fluoro-1H-indol-3-yl)-1H-pyrrolo[3,2-b]pyridin-2(3H)-one]
41 | 6.15 | CS(=O)(=O)Nc1ccc(-c2c[nH]c3cc(F)ccc23)cn1 [Example 60, N-(5-(6-fluoro-1H-indol-3-yl)pyridin-2-yl)methanesulfonamide]
42 | 5.96 | N[C@@H](Cc1ccccc1)C(=O)Nc1ccc(-c2c[nH]c3cc(F)ccc23)cn1 [Example 36, (S)-2-amino-N-(5-(6-fluoro-1H-indol-3-yl)pyridin-2-yl)-3-phenylpropanamide]
43 | 6.43 | NC(=O)CCNS(=O)(=O)c1ccc(-c2c[nH]c3cc(F)ccc23)cn1 [Example 99, 3-(5-(6-fluoro-1H-indol-3-yl)pyridine-2-sulfonamido)propanamide]
